Results taken from patent US9326996B2, “Use of xenon as neuroprotectant in a neonatal subject” (IMPERIAL INNOVATIONS LIMITED, priority 2004, dated 2016).
Where two headings read alike, the source gives them in different places.

How the values were obtained:
[1] = in vivo; cited from earlier work
[2] = test system: activated caspase-3 in cortex; assay: Cortical activated caspase-3 immunohistochemistry after anesthetic gas exposure
Description: (§1) 7 day old Sprague-Dawley rat pups were placed in individual wells of a custom-built anesthetic chamber, and randomised to groups A-F to receive one of 6 gas combinations for 6 hours. Previous work has established that NMDA receptor antagonists have their maximal neurodegenerative affect 7 days after birth (Ikonomidou et al., 1999).
(§2) Group B received 75% nitrous oxide and 25% oxygen as delivered by a calibrated anesthetic machine, whereas group C received 75% xenon along with 25% oxygen through a customised anesthetic machine modified for xenon delivery (Ohmeda, modified by Air Products, Surrey, UK). Group D were exposed to 25% oxygen along with 0.75% isoflurane. The remaining 2 groups were exposed to combinations of gases—namely 25% oxygen+75% nitrous oxide+0.75% isoflurane (group E) and 25% oxygen+60% xenon+15% nitrogen+0.75% isoflurane (group F). The high cost of xenon precludes its use in an open-circuit, consequently group C and group F received gases using a closed-circuit system, whereas gases for all other groups were delivered in a high-flow open-circuit.
(§3) Rats destined for immunohistochemistry were sacrificed with 100 mg kg^−1 sodium pentobarbital IP immediately post-anesthesia, whereas those rats for DeOlmos silver staining were allowed to recover for 18 hrs before undergoing the same procedure. A thoracotomy was performed, and the aorta cannulated via a needle inserted into the apex of the heart. The pup was then perfused with 10 ml of 1% heparin solution, with the excess solution leaving through an incision in the right atrium. To fix the tissues, 20 ml of 4% paraformaldehyde in 0.1M phosphate buffer was injected by the same transcardial route. The whole brain was then removed and allowed to fix in paraformaldehyde perfusate and refrigerated at 4° C. 24 hours later, the brains were transferred to a solution of 30% sucrose with phosphate buffer and 1% sodium azide, and were kept refrigerated until the brains sank (approximately 48 hours).
(§4) Once processed, a block was cut to safely include the area of interest—a coronal section −3.6 mm from the bregma (FIG. 1B). The blocks were then embedded and frozen into O.C.T. solution. The block was then cut coronally into approximately 120 slices, each 30 μm thick, with a cryostat (Bright Instrument Company Ltd., Huntingdon, UK). The cut sections were transferred to a 6 well plate containing phosphate buffered saline (PBS).
A random well from each cut block, each containing around 20 representative slices of the total block, was transferred to a marked silk-bottomed well using a 3 ml Pasteur pipette. The sections were then washed in 5 ml of PBS for 5 min on a shaker set at 75 rpm. This washing procedure was repeated twice more, replacing the PBS each time. To quench the sections, they were incubated at room temperature on a shaker for 30 min in a solution comprising 35 ml methanol, 15 ml of PBS and 500 μl of stock 30% H2O2.
The quenching solution was then removed, and the sections washed three times in PBS. Sections were blocked for 60 min at room temperature with 50 ml of PBST (PBS containing 0.5% Triton-X (Promega Corporation, Madison, Wis.)), and 1500 μl of normal goat serum (NGS) (Vector Laboratories Inc., Burlingame, Calif.). For incubation with the primary antibody, the sections were kept overnight at 4° C. on a shaker set at 50 rpm in a solution made up of […] rabbit anti-cleaved caspase-3 antibody (New England Biolabs, Hertfordshire, UK), 50 ml of PBST and 500 μl of NGS. […]

pure neuronal cultures = assay: FACS assessment of necrotic, viable and apoptotic cell populations after preconditioning and oxygen glucose deprivation
Description: Neuronal cells were harvested from 19 day old embryonic mice by cesarean section for pregnant BALB/c mice. 6-9 mouse brains were removed from fetal mice and dissected to isolate whole cerebral neocortices devoid of the hippocampus, basal ganglia and meninges. Again throughout the micro dissection process, brain tissues were kept in 4° C. HSG solution. […] The cells were plated at a density of 1.2×10^5 cells, per cm^2 on 24-multiwell plates (Cater, Cambridge, Mass.) and the cultures were maintained at 37° C. in a humidified 5% CO2 environment. Neurobasal Media supplemented with B27, glutamine and AAS was used to resuspend the neuronal cells and as culture medium. For every 10 ml of Neurobasal Media, the following supplements were added: 200 μl B27, 100 μl antibiotic and 25 μl glutamine. Medium replacement for these cells was performed on day 2, 5 and 7 with pre-warmed 37° C. culture medium (Neurobasal Media, B27, Glutamine and AAS). On day 5 after neuronal plating, 100 μl/10 ml cytosine arabinoside (CA hydrochloride, Sigma) was added to the cell cultures to halt non-neuronal cell division. Neuronal cell cultures were ready to use on day 7.
Cells were preconditioned using a purpose built 1.4 liter airtight, temperature controlled gas chambers. The chambers had inlet and outlet valves and an internal electric fan to ensure effective and continuous delivery of gases. Gas flow rate was 100 ml/min, and so chambers were flushed and allowed to equilibrate for 45 minutes before establishing a closed system. Cells were preconditioned for 2 hours inside the closed system with the appropriate gas concentrations using flow meters. Sevoflurane was delivered using a vaporiser (Datex-Ohmeda).
To model ischaemic damage in the brain, neuronal cells were subjected to oxygen glucose deprivation. Twenty four hours after preconditioning cells, cultures were washed twice with HEPES buffer solution (120 mM NaCl, 5.4 mM KCL, 0.8 mM MgCl2, 15 mM glucose and 20 mM HEPES, titrated to pH 7.4 using 1M NaOH). […] The cells were exposed to this anoxic environment for 75 minutes. Oxygen glucose deprivation was terminated by removing the cultures from the gas chamber and changing the media; cultures destined for lactate dehydrogenase (LDH) assay were washed once and replaced with Eagle's minimal essential medium enhanced with 25 mM glucose and 38 mM NaHCO3, whereas pure neuronal cultures for FACS were washed once and replaced with Neurobasal Media supplemented with B27, glutamine and AAS.
Twenty fours hours after oxygen glucose deprivation, cells were stained for FACS analysis. The culture medium was removed and washed twice with HEPES buffer solution. […] Cells were then washed twice with 1×BB, and then 0.8 μg/ml propidium iodide (Sigma-Aldrich, Poole, UK) in 1% fetal bovine serum (FBS) in phosphate buffer solution (PBS) was added and left to incubate on ice for 5 minutes. […] 800 μl 1% FBS in PBS was then added to stop the reaction, cells were removed and added to tubes for centrifugation at 1200 g for 10 minutes. The supernatant was discarded and the cells were re-suspended with 300 μl 1% FBS in PBS. Steps, if possible, were performed on ice to reduce the amount of neuronal death.
A FACSCalibur (Becton Dickinson, Sunnyvale, Calif.) with a single argon laser was used for flow cytometric analysis. […] At least 10,000 cells per sample were analysed.

[3] = test system: neuronal glial co-culture; assay: LDH release after preconditioning and oxygen glucose deprivation, neuronal glial co-culture; assay type: cell-based, mouse; conditions: for LDH release following oxygen glucose deprivation: 2 h preconditioning
Description: The pups were anaesthetised with isoflurane and then decapitated with the heads placed immediately into 4° C. HSG solution, an isotonic, high sucrose glucose solution made primarily from Hank's balanced salt solution (HBSS, GibroBRL) enhanced with NaHCO3 (0.04 M), sucrose (0.2 M) and D-Glucose (0.3 M) also containing antibiotic-anti-mycotic solution (AAS, GibroBRL). […] HSG solution.
The brain tissue was then immersed in 0.25% trypsin and was placed in a shaking air chamber for 50 minutes at 37° C. filled with 5% CO2 and 95% room air. DNase was then added to the mixture and placed back into the shaking air chamber for a further 15 minutes. The mixture was then centrifuged at 1600 rpm for 10 minutes at 4° C. and the supernatant was carefully discarded. The cells were then resuspended and then plated at a density of 6.25×10^4 cells/cm^2 on 24-multiwell plates (Costar, Cambridge, Mass.) and cultured in a medium consisting of Eagle's minimum essential medium augmented with 20 mM glucose, 26 mM NaHCO3, 10% foetal bovine serum, 10% heat-inactivated horse serum, AAS (Gibco, Paisley, UK), 2 mM glutamine (Sigma, Poole, UK) and 10 ng/ml murine epidermal growth factor (EGF) (GibcoBRL). Glial cells reached confluence about one week after plating.
Using a similar procedure cortical neuronal cells were obtained from fetal BALB/c mice at 14-16 days of gestation and plated at a density of 1.25×10^5 cells per cm^2 on the confluent monolayer of glial cells derived from the corresponding genetic strain. Neuronal cells reached confluence 10 days after plating.
Sevoflurane was delivered using a vaporiser (Datex-Ohmeda).
The amount of neuronal damage was assessed by the amount of LDH released into the culture medium, using a standardised colorimetric enzyme kit (Sigma, Poole, UK). This technique has been previously described (Wilhelm et al 2002). LDH assessment was performed 16 hours after oxygen glucose deprivation (FIG. 8).

[4] = test system: activated caspase-3 in hippocampus; assay: Hippocampal activated caspase-3 immunohistochemistry after anesthetic gas exposure
Description: as §1, §2, §3, §4
A random well from each cut block, each containing around 20 representative slices of the total block, was transferred to a marked silk-bottomed well using a 3 ml Pasteur pipette. The sections were then washed in 5 ml of PBS for 5 min on a shaker set at 75 rpm. This washing procedure was repeated twice more, replacing the PBS each time. […]

[5] = 12.5% xenon, 0.67% sevoflurane or their combination as preconditioning, then oxygen glucose deprivation
[6] = 7 day old Sprague-Dawley rats, 6 h exposure with 25% oxygen, 75% N2O, 75% xenon, 0.75% isoflurane, 75% N2O+0.75% isoflurane, 60% xenon+0.75% isoflurane, air control 19.3±6.4
[7] = Sprague-Dawley, rat, in vivo, 6 h

SMILES: FCOC(C(F)(F)F)C(F)(F)F [sevoflurane]
- atmosphere sufficient to maintain anesthesia [1]: about 2.5%
- degenerating neurons, positive cells ([2]; 1.5% sevoflurane alone, control value 20.0±2, brain region not stated): 42±2 positive cells
- apoptotic cell population (pure neuronal cultures; [5]): 17+/−1%
- viable cell population (pure neuronal cultures; [5]): 9%
- necrotic cell population (pure neuronal cultures; 12.5% xenon, 0.67% sevoflurane or their combination as preconditioning, then oxygen glucose deprivation, sham 70+/−2%, control 17+/−1%): 81+/−2%
- concentration producing a significant reduction in LDH release ([3]; 2 h preconditioning followed by OGD): greater than 1.9%
- LDH release following oxygen glucose deprivation ([3]; sevoflurane at 0.67%, ineffective): 97+/−5 % of controls
- LDH release following oxygen glucose deprivation ([3]; sevoflurane at 1.3%): 100+/−11 % of controls
- LDH release following oxygen glucose deprivation ([3]; sevoflurane at 2.7%, p<0.05): 64+/−6 % of control
- LDH release following oxygen glucose deprivation ([3]; sevoflurane at 3.3%, p<0.001): 37+/−5 % of controls

SMILES: [Xe] [xenon]
- atmosphere sufficient to induce or maintain anesthesia [1]: about 70%
- number of caspase-3 positive cells in cortex (mean±SD) [2, 6]: 19.7±9.6
- number of caspase-3 positive cells in hippocampus (mean±SD) ([4]; 7 day old Sprague-Dawley rats, 6 h exposure with 25% oxygen, 75% N2O, 75% xenon, 0.75% isoflurane, 75% N2O+0.75% isoflurane, 60% xenon+0.75% isoflurane, controls 5.2±1.8): 5.0±3.2
- necrotic cell population (pure neuronal cultures): 75+/−2%
- apoptotic cell population (pure neuronal cultures; [5]): 9+/−1%
- viable cell population (pure neuronal cultures; [5]): 9%
- LDH release following oxygen glucose deprivation ([3]; xenon at 12.5%, not significant): 83+/−7 % of controls
- LDH release following oxygen glucose deprivation ([3]; xenon at 25%, not significant): 70+/−11 % of controls
- LDH release following oxygen glucose deprivation ([3]; xenon at 50%, p<0.05): 55+/−12 % of control values
- LDH release following oxygen glucose deprivation ([3]; xenon at 75%, p<0.05): 49+/−12 % of control values

SMILES: [N-]=[N+]=O [N2O, nitrous oxide]
- number of caspase-3 positive cells in cortex (mean±SD) [2, 7]: 22.5±5.9
- number of caspase-3 positive cells in hippocampus (mean±SD) [4, 7]: 3.7±1.4

SMILES: FC(F)OC(Cl)C(F)(F)F (centres unmarked) [isoflurane]
- increase in the level of apoptosis in the cortex vs controls ([2]; 0.75% isoflurane or 75% N2O+0.75% isoflurane, neonatal rats): 4 fold
- number of caspase-3 positive cells in cortex (mean±SD) [2, 6]: 76.5±11.4
- increase in the level of apoptosis in the hippocampus vs controls [4, 7]: 4 fold
- number of caspase-3 positive cells in hippocampus (mean±SD) [4, 7]: 22.1±9.6
